Literature values, collected in patent publication US20240158375A1, “COMPOUNDS AND METHODS FOR THE TREATMENT OF OCULAR DISORDERS” (Azura Ophthalmics Ltd., priority 2020, published 2024).

Columns and labels:
[1] = system: murine DS model; conditions: Invest. Ophthalmol. Vis. Sci. (2015) 56(10), 5888-5895
[2] = target: integrin α4 (Homo sapiens, UniProt P05556+P13612); conditions: Ravensberg et al, Allergy (2006) 61, 1097-1103
integrin α4, sequence (P13612 34-1032, species assumed): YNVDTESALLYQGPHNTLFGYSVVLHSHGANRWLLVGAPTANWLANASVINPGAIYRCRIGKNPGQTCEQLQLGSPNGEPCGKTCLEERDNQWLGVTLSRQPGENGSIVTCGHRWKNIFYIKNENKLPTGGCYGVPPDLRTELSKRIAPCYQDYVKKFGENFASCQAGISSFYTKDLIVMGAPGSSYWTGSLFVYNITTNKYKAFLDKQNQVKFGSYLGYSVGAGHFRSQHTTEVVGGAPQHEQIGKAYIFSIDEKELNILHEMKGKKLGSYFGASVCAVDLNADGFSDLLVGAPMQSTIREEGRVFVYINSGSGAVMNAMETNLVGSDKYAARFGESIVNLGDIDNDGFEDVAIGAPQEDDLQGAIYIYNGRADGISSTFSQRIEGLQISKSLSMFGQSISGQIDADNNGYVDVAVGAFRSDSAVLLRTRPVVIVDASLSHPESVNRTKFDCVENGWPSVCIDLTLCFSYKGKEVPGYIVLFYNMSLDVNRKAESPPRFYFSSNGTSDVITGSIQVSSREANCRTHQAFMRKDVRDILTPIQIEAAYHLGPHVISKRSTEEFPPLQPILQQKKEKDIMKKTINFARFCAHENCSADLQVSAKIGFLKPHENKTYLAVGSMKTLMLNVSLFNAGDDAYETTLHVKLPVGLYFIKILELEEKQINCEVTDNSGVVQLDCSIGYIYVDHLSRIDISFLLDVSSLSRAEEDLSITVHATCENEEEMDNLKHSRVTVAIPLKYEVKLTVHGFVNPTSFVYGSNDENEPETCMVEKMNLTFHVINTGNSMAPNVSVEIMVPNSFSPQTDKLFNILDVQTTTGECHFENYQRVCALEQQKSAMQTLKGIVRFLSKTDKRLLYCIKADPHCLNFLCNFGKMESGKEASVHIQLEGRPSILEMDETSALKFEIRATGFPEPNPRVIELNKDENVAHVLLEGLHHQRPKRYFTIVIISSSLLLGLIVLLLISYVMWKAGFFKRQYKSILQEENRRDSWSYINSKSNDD
integrin α4, sequence (P05556 21-798, species assumed): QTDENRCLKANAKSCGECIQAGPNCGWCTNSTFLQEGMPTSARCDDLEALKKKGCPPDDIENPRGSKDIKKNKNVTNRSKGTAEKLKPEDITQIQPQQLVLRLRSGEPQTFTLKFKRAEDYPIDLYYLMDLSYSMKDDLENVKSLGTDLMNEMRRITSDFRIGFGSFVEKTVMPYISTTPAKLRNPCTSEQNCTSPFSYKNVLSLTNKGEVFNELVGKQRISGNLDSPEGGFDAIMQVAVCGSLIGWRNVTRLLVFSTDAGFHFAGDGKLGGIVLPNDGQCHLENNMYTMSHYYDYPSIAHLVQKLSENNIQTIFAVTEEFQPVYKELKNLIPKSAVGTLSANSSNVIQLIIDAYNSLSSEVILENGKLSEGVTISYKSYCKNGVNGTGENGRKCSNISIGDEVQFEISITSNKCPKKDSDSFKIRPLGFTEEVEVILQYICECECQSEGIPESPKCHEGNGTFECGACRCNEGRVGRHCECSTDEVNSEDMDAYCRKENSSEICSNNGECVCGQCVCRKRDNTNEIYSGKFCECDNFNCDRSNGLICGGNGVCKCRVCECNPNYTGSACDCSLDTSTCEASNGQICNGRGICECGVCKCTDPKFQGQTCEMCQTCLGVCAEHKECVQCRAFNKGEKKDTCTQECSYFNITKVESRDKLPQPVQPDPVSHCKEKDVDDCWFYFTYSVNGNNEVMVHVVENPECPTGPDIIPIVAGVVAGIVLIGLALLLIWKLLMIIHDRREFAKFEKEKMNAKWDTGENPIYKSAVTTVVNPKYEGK

integrin α4 antagonist activity [2]: potent integrin a4 antagonist
SMILES: Cc1ccccc1OCC(=O)N[C@@H](CC(C)C)C(=O)N[C@@H](Cc1ccc(OC(=O)N2CCC(C(N)=O)CC2)cc1)C(=O)O [(S)-3-(4-((4-carbamoylpiperidine-1-carbonyl)oxy)phenyl)-2-((S)-4-methyl-2-(2-(o-tolyloxy)acetamido)pentanamido)propanoic acid]
objective signs of dry eye [1]: improvements in objective signs of dry eye
